Source: ChEMBL document CHEMBL1201862, “PubChem BioAssay data set” (2004)
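48-hour exposure; five concentrations; linearly interpolated endpoints. GI50 is the concentration that inhibits growth by half.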 The source made the active and inactive calls. Cut-off read from the data, not from the text of the source: active = GI50 up to about 1.1 µM and inactive = higher.

What was measured:
Assay in all cases: NCI-60 cell line screen, 48 h
DMS-114 = test system: DMS-114
HCT-15 = test system: HCT-15
MOLT-4 = test system: MOLT-4
RXF 393 = test system: RXF 393
SR = test system: SR
OVCAR-8 = test system: OVCAR-8
UACC-62 = test system: UACC-62
SN12C = test system: SN12C
EKVX = test system: EKVX
OVCAR-4 = test system: OVCAR-4
LXFL 529 = test system: LXFL 529
M14 = test system: M14
NCI-H522 = test system: NCI-H522
SNB-75 = test system: SNB-75
SF-268 = test system: SF-268
DLD-1 = test system: DLD-1
NCI-H460 = test system: NCI-H460
SNB-19 = test system: SNB-19
A549 = test system: A549
TK-10 = test system: TK-10
HCC 2998 = test system: HCC 2998
RXF 631 = test system: RXF 631
HL-60 = test system: HL-60
K562 = test system: K562
HOP-92 = test system: HOP-92
UO-31 = test system: UO-31
HOP-62 = test system: HOP-62
SK-MEL-5 = test system: SK-MEL-5
LOX IMVI = test system: LOX IMVI
M19-MEL = test system: M19-MEL
OVCAR-3 = test system: OVCAR-3
SW-620 = test system: SW-620
KM-20L2 = test system: KM-20L2
SK-MEL-2 = test system: SK-MEL-2
SF-539 = test system: SF-539
SF-295 = test system: SF-295
NCI-H226 = test system: NCI-H226
SK-OV-3 = test system: SK-OV-3
ACHN = test system: ACHN
HT-29 = test system: HT-29
HOP-18 = test system: HOP-18
U-251 = test system: U-251
Malme-3M = test system: Malme-3M
XF498 = test system: XF498
IGROV-1 = test system: IGROV-1
HCT-116 = test system: HCT-116
OVCAR-5 = test system: OVCAR-5
NCI-H23 = test system: NCI-H23
CAKI-1 = test system: CAKI-1
RPMI-8226 = test system: RPMI-8226
DMS-273 = test system: DMS-273
UACC-257 = test system: UACC-257
CCRF-CEM = test system: CCRF-CEM
SNB-78 = test system: SNB-78

Which GI50 (DMS-114) does the source give for `O=C1C=CC2=[N+]([O-])C(c3ccccc3)(c3ccccc3)/C(=N\c3ccccc3)C2=C1` here?
The GI50 was 1850 nM (inactive).

And the GI50 (HCT-15)?
The GI50 was 2030 nM.

What about the GI50 (MOLT-4) of the same molecule?
Its GI50 is 1270 nM (inactive).

And the GI50 (RXF 393)?
Its GI50 is 1600 nM (inactive).

What about the GI50 (SR) of the same molecule?
Its GI50 is 269 nM (active).

And the GI50 (OVCAR-8)?
Its GI50 is 1750 nM (inactive).

And the GI50 (UACC-62)?
The GI50 was 2100 nM (inactive).

And the GI50 (SN12C)?
The GI50 was 2220 nM (inactive).

What about the GI50 (EKVX) of the same molecule?
The GI50 was 4140 nM (inactive).

And the GI50 (OVCAR-4)?
The GI50 was 1800 nM (inactive).

And the GI50 (LXFL 529)?
The GI50 was 1780 nM (inactive).

What about the GI50 (M14) of the same molecule?
The GI50 was 1970 nM (inactive).

What about the GI50 (NCI-H522) of the same molecule?
Its GI50 is 1610 nM (inactive).

What about the GI50 (SNB-75) of the same molecule?
Its GI50 is 3220 nM (inactive).

What about the GI50 (SF-268) of the same molecule?
The GI50 was 3280 nM (inactive).

And the GI50 (DLD-1)?
Its GI50 is 1530 nM (inactive).

What about the GI50 (NCI-H460) of the same molecule?
The GI50 was 11000 nM (inactive).

What about the GI50 (SNB-19) of the same molecule?
The GI50 was 17200 nM (inactive).

What about the GI50 (A549) of the same molecule?
Its GI50 is 15400 nM (inactive).

And the GI50 (TK-10)?
Its GI50 is 1800 nM (inactive).

What about the GI50 (HCC 2998) of the same molecule?
Its GI50 is 6300 nM (inactive).

What about the GI50 (RXF 631) of the same molecule?
Its GI50 is 3050 nM (inactive).

And the GI50 (HL-60)?
Its GI50 is 349 nM (active).

And the GI50 (K562)?
Its GI50 is 2100 nM (inactive).

What about the GI50 (HOP-92) of the same molecule?
Its GI50 is 1700 nM (inactive).

What about the GI50 (UO-31) of the same molecule?
The GI50 was 2210 nM (inactive).

And the GI50 (HOP-62)?
The GI50 was 14600 nM (inactive).

What about the GI50 (SK-MEL-5) of the same molecule?
Its GI50 is 14200 nM (inactive).

And the GI50 (LOX IMVI)?
The GI50 was 1800 nM (inactive).

What about the GI50 (M19-MEL) of the same molecule?
Its GI50 is 1770 nM (inactive).

And the GI50 (OVCAR-3)?
Its GI50 is 1820 nM (inactive).

What about the GI50 (SW-620) of the same molecule?
The GI50 was 1910 nM (inactive).

What about the GI50 (KM-20L2) of the same molecule?
Its GI50 is 2340 nM (inactive).

And the GI50 (SK-MEL-2)?
Its GI50 is 18200 nM (inactive).

And the GI50 (SF-539)?
Its GI50 is 6850 nM (inactive).

And the GI50 (SF-295)?
The GI50 was 14500 nM (inactive).

And the GI50 (NCI-H226)?
Its GI50 is 8890 nM (inactive).

What about the GI50 (SK-OV-3) of the same molecule?
Its GI50 is 17800 nM (inactive).

And the GI50 (ACHN)?
Its GI50 is 1740 nM (inactive).

And the GI50 (HT-29)?
The GI50 was 2410 nM (inactive).

And the GI50 (HOP-18)?
Its GI50 is 2920 nM (inactive).

And the GI50 (U-251)?
The GI50 was 2500 nM (inactive).

What about the GI50 (Malme-3M) of the same molecule?
The GI50 was 2290 nM (inactive).

What about the GI50 (XF498) of the same molecule?
Its GI50 is 1310 nM (inactive).

What about the GI50 (IGROV-1) of the same molecule?
Its GI50 is 1820 nM (inactive).

What about the GI50 (HCT-116) of the same molecule?
The GI50 was 1970 nM (inactive).

What about the GI50 (OVCAR-5) of the same molecule?
Its GI50 is 16400 nM (inactive).

And the GI50 (NCI-H23)?
Its GI50 is 2380 nM (inactive).

What about the GI50 (CAKI-1) of the same molecule?
Its GI50 is 2440 nM (inactive).

And the GI50 (RPMI-8226)?
Its GI50 is 2960 nM (inactive).

And the GI50 (DMS-273)?
The GI50 was 2380 nM (inactive).

And the GI50 (UACC-257)?
The GI50 was 2380 nM (inactive).

And the GI50 (CCRF-CEM)?
Its GI50 is 407 nM (active).

And the GI50 (SNB-78)?
Its GI50 is 3740 nM (inactive).
